Measured values from paper PMC3088537, “Production, purification, sequencing and activity spectra of mutacins D-123.1 and F-59.1” (BMC Microbiology, 2011).
Marks after values point to notes of the source that are not given here. Bridge positions count the residues as written; N and C are the ends. Ends that are not written are not given here.

What was measured:
[1] = Hydrophobic chromatography elution (Sep-Pak t-C18, methanol steps) as measure of hydrophobicity; assay type: physicochemical; conditions: Sep-Pak t-C18 cartridge, water:methanol steps of 10% from 0 to 100% in 10 mM HCl; used as indication of hydrophobicity
Procedure: Purification of the two mutacins was achieved by two hydrophobic chromatography steps as previously described by replacing TFA with HCl (10 mM). Briefly, the active preparation was loaded on a Sep-Pak® Vac 35 cc (10 g) t-C18 Cartridge (Waters Corporation, Milford, MA, USA). Cartridges were first equilibrated with 500 mL of methanol followed by 500 mL of deionized distilled water. Antibacterial compounds were eluted with successive steps of 500 mL of water:methanol mixtures increasing the gradient of methanol by 10% from 0 to 100% in 10 mM HCl. This was carried out at a flow rate of 1 mL/min and UV detection at 214 nm. The final purification step was carried out by reverse phase chromatography (RP)-HPLC analysis (Beckman Gold Model, Coulter Canada Inc., Mississauga, ON, Canada) using an analytical C18 column (Luna 5 μ C18(2), 250 × 4.6 mm, 4 × 3.0 mm, Phenomenex, Torrance, CA, USA). Elution was carried out with solvent A (5% acetonitrile, 10 mM HCl) and solvent B (60% acetonitrile, 10 mM HCl) and recorded at 214 nm. The following program of elution was developed: 0 to 3 min, constant 100% A; 3 to 15 min, a linear gradient from 100% A to 100% B; 15 to 20 min, constant 100% B; 20 to 23 min, a linear gradient from 100% B to 100% A. A flow rate of 1 mL/min was used. […] Protein concentration in active fractions was determined using the BioRad DC protein assay (BioRad, Mississauga, ON, Canada).

[2] = system: Enterococcus hirae ATCC 8043; assay: Inhibitory spectrum, critical dilution with spot test; assay type: cell-based; conditions: purified mutacin, 5 μL spotted on soft agar lawn on TSAYE; reciprocal of highest dilution showing inhibition zone
Procedure: (§1) Streptococcus mutans 59.1 and 123.1 produce mutacins F-59.1 and D-123.1 respectively. Micrococcus luteus ATCC 272 (ATCC, Manassas, VA, USA) was used as the indicator strain for the mutacin activity assays. All bacteria were routinely grown aerobically at 37°C in TSBYE made of TSB (Difco laboratories, Detroit, MI, USA) supplemented with 0.3% yeast extract (Becton Dickinson & Co., Cockeysville, MD, USA) or on TSAYE plates made of TSA (Difco) enriched with 0.3% yeast extract. Lactobacillus salivarius strain (provided by Sylvain Moineau, Université Laval, Québec, QC, Canada) was cultivated aerobically at 30°C in MRS medium (Oxoid, Nepean, ON, Canada). Other bacterial strains used for the inhibitory spectra determination are described in Mota-Meira et al. and Morency et al.. Staphylococcus carnosus was obtained from the strain collection of the Department of Microbiology, Biochemistry and Bioinformatics (Université Laval).
(§2) Mutacin activity was determined by the spot test using Micrococcus luteus ATCC 272 as sensitive strain where two-fold dilutions were prepared in acidified (pH 2) peptone water (0.5%). Antibacterial activity spectra of purified mutacins was tested against a panel of bacterial strains using the critical dilution method combined with the spot test method as described previously. Briefly, overnight cultures of test strains in TSBYE were diluted in fresh broth before inoculating 5 mL of soft agar (0.75%) in order to obtain confluent lawns of growth on TSAYE plates. Five μL of purified mutacins, diluted in acidified (10 mM HCl) distilled water to promote solubility of the peptides, were deposited on the lawn and allowed to dry before appropriate incubation. Mutacin activity was expressed in AU/mL and corresponds to the reciprocal of the highest dilution showing a noticeable inhibition zone on the lawn.

Staphylococcus carnosus = assay: as above; assay type: cell-based; conditions: purified mutacin, 5 μL spotted on soft agar lawn on TSAYE; reciprocal of highest dilution showing inhibition zone
Procedure: as §1, §2

[3] = system: Listeria murrayi ATCC 25420; assay: as above; assay type: cell-based; conditions: purified mutacin, 5 μL spotted on soft agar lawn on TSAYE; reciprocal of highest dilution showing inhibition zone
Procedure: as §1, §2

Bacillus cereus ATCC 2 = assay: as above; assay type: cell-based; conditions: purified mutacin, 5 μL spotted on soft agar lawn on TSAYE; reciprocal of highest dilution showing inhibition zone
Procedure: as §1, §2

[4] = system: Staphylococcus aureus ATCC 6538; assay: as above; assay type: cell-based; conditions: purified mutacin, 5 μL spotted on soft agar lawn on TSAYE; reciprocal of highest dilution showing inhibition zone
Procedure: as §1, §2

[5] = system: Lactobacillus salivarius SMQ 876; assay: as above; assay type: cell-based; conditions: purified mutacin, 5 μL spotted on soft agar lawn; reciprocal of highest dilution showing inhibition zone
Procedure: as §1, §2

Listeria ivanovii HPB 28 = assay: as above; assay type: cell-based; conditions: purified mutacin, 5 μL spotted on soft agar lawn on TSAYE; reciprocal of highest dilution showing inhibition zone
Procedure: as §1, §2

[6] = system: Listeria monocytogenes ATCC 15313; assay: as above; assay type: cell-based; conditions: purified mutacin, 5 μL spotted on soft agar lawn on TSAYE; reciprocal of highest dilution showing inhibition zone
Procedure: as §1, §2

[7] = system: Streptococcus sobrinus ATCC 27352; assay: as above; assay type: cell-based; conditions: purified mutacin, 5 μL spotted on soft agar lawn on TSAYE; reciprocal of highest dilution showing inhibition zone
Procedure: as §1, §2

[8] = system: Streptococcus pyogenes ATCC 10389; assay: as above; assay type: cell-based; conditions: purified mutacin, 5 μL spotted on soft agar lawn on TSAYE; reciprocal of highest dilution showing inhibition zone
Procedure: as §1, §2

[9] = system: Lactococcus lactis ATCC 11454; assay: as above; assay type: cell-based; conditions: purified mutacin, 5 μL spotted on soft agar lawn on TSAYE; reciprocal of highest dilution showing inhibition zone
Procedure: as §1, §2

[10] = system: Streptococcus suis serotype 2; assay: as above; assay type: cell-based; conditions: purified mutacin, 5 μL spotted on soft agar lawn on TSAYE; reciprocal of highest dilution showing inhibition zone
Procedure: as §1, §2

[11] = system: Bacillus subtilis ATCC 6051; assay: as above; assay type: cell-based; conditions: purified mutacin, 5 μL spotted on soft agar lawn on TSAYE; reciprocal of highest dilution showing inhibition zone
Procedure: as §1, §2

[12] = system: Enterococcus faecium ATCC 19434; assay: as above; assay type: cell-based; conditions: purified mutacin, 5 μL spotted on soft agar lawn on TSAYE; reciprocal of highest dilution showing inhibition zone
Procedure: as §1, §2

[13] = system: Listeria grayi ATCC 19120; assay: as above; assay type: cell-based; conditions: purified mutacin, 5 μL spotted on soft agar lawn on TSAYE; reciprocal of highest dilution showing inhibition zone
Procedure: as §1, §2

[14] = system: Micrococcus luteus ATCC 272; assay: as above; assay type: cell-based; conditions: purified mutacin, 5 μL spotted on soft agar lawn on TSAYE; reciprocal of highest dilution showing inhibition zone
Procedure: as §1, §2

[15] = system: Pediococcus acidilactici UL5; assay: as above; assay type: cell-based; conditions: purified mutacin, 5 μL spotted on soft agar lawn on TSAYE; reciprocal of highest dilution showing inhibition zone
Procedure: as §1, §2

Sequence: KYYGNGVTCGKHSCSVDWSKATTNI (disulfide 9-14 (inferred)) [mutacin F-59.1, pediocin-like (class IIa) bacteriocin of 25 amino acids produced by Streptococcus mutans 59.1; UniProt P86386]
- Elution gradient at which active fractions were recovered (methanol in 10 mM HCl) [1]: 50%-60%
- Activity of mutacin against Enterococcus hirae ATCC 8043 [2]: 200 AU/mL
- Activity of mutacin against Staphylococcus carnosus (Staphylococcus carnosus): 800 AU/mL
- Activity of mutacin against Listeria murrayi ATCC 25420 [3]: 200^b AU/mL
- Activity of mutacin against Bacillus cereus ATCC 2 (Bacillus cereus ATCC 2): 400 AU/mL
- Activity of mutacin against Staphylococcus aureus ATCC 6538 [4]: 0 AU/mL
- Activity of mutacin against Lactobacillus salivarius SMQ 876 [5]: 0 AU/mL
- Activity of mutacin against Listeria ivanovii HPB 28 (Listeria ivanovii HPB 28): 200 AU/mL
- Activity of mutacin against Listeria monocytogenes ATCC 15313 [6]: 200^b AU/mL
- Activity of mutacin against Streptococcus sobrinus ATCC 27352 [7]: 800 AU/mL
- Activity of mutacin against Streptococcus pyogenes ATCC 10389 [8]: 0 AU/mL
- Activity of mutacin against Lactococcus lactis ATCC 11454 [9]: 400 AU/mL
- Activity of mutacin against Streptococcus suis serotype 2 [10]: 0 AU/mL
- Activity of mutacin against Bacillus subtilis ATCC 6051 [11]: 400 AU/mL
- Activity of mutacin against Enterococcus faecium ATCC 19434 [12]: 1600 AU/mL
- Activity of mutacin against Listeria grayi ATCC 19120 [13]: 200 AU/mL
- Activity of mutacin against Micrococcus luteus ATCC 272 [14]: 3200 AU/mL
- Activity of mutacin against Pediococcus acidilactici UL5 [15]: 800 AU/mL
